Measurements reported in publication PMC9513391, “Crystal structure of the α-ketoglutarate-dependent non-heme iron oxygenase CmnC in capreomycin biosynthesis and its engineering to catalyze hydroxylation of the substrate enantiomer” (Frontiers in Chemistry, 2022).

Tests used:
Assay type in all cases: binding
CmnC [1] = molecular target: T1, CmnC (Saccharothrix mutabilis, UniProt A6YEH4, L136Q/S138G/D249Y); assay: X-ray crystal structure by soaking, […] Å; hydroxylation by LC-MS; details: 20 mM D-Arg soak, 12 h; activity: α-KG, Fe(II), ascorbate, pH 7.0, 26 °C
T1 construct: cmnC amplified from genomic DNA in pET28a, E. coli BL21 (DE3), Ni-NTA purified; homodimer in crystal and by size-exclusion chromatography

CmnC [2] = molecular target: T2, CmnC (Saccharothrix mutabilis, UniProt A6YEH4); assay: X-ray crystal structure by soaking; hydroxylation by LC-MS; details: 0.1 mM FeCl2 soak
T2 construct: cmnC amplified from genomic DNA in pET28a, E. coli BL21 (DE3), Ni-NTA purified; homodimer in crystal and by size-exclusion chromatography

CmnC [3] = molecular target: T2, CmnC; assay: X-ray crystal structure by soaking; details: 3 mM α-KG, 0.1 mM FeCl2 soak, 12 h; ternary complex with L-Arg also solved
CmnC [4] = molecular target: T1, CmnC; assay: X-ray crystal structure by soaking, […] Å; details: 3 mM α-KG and 0.1 mM FeCl2 soak, 12 h

T2 sequence (A6YEH4 1-338): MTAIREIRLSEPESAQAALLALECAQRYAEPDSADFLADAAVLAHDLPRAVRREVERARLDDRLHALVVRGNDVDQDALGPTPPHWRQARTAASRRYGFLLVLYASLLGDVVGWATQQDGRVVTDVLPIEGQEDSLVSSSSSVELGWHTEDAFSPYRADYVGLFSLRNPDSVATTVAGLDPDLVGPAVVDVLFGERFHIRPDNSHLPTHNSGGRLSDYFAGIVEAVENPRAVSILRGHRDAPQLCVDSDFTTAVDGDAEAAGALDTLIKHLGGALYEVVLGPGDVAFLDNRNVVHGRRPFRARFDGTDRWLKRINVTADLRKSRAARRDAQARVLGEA
T1 sequence (A6YEH4 1-338 L136Q/S138G/D249Y): as the sequence (A6YEH4 1-338) above, with L136Q, S138G, D249Y counted along it

Structure (SMILES): N=C(N)NCCC[C@@H](N)C(=O)O [D-Arg]
- X-ray crystal structure by soaking, 1.75 Å; hydroxylation by LC-MS (CmnC [1]): crystal structures of CmnC^L136Q,S138G,D249Y in complex with α-KG (CmnC^triple,α-kg) and D-Arg (CmnC^triple,D−Arg)

Structure (SMILES): N=C(N)NCCC[C@H](N)C(=O)O [L-Arg]
- X-ray crystal structure by soaking; hydroxylation by LC-MS (CmnC [2]; 3 mM L-Arg, tartrate in α-KG site in the binary complex, ternary complex with α-KG also solved): in complex with L-Arg (CmnC^ L−Arg), L-hArg (CmnC^ L-hArg), α-KG (CmnC^α-kg)

Structure (SMILES): N=C(N)NCCCC[C@H](N)C(=O)O [L-hArg]
- X-ray crystal structure by soaking; hydroxylation by LC-MS (CmnC [2]; 3 mM L-hArg, tartrate in α-KG site): in complex with L-Arg (CmnC^ L−Arg), L-hArg (CmnC^ L-hArg), α-KG (CmnC^α-kg)

Structure (SMILES): O=C(O)CCC(=O)C(=O)O [α-KG]
- X-ray crystal structure by soaking (CmnC [3]): L-hArg (CmnC^ L-hArg), α-KG (CmnC^α-kg), and L-Arg/α-KG (CmnC^ L−Arg,α-kg)
- X-ray crystal structure by soaking, 1.67 Å (CmnC [4]): crystal structures of CmnC^L136Q,S138G,D249Y in complex with α-KG (CmnC^triple,α-kg)
